Experimental data from patent publication US5849587A, “Method of inhibiting viral replication in eukaryotic cells and of inducing apoptosis of virally-infected cells” (Cornell Research Foundation, Inc., priority 1995, dated 1998).

Experiments:
[1] = test system: cellular protein TNF-α; test: TNF-α biosynthesis and secretion (ELISA) in PMA-induced ACH-2 cells; format: cell-based, human; conditions: 200 μM, PMA-induced ACH-2, FIG. 10
[2] = test system: HIV-1 RNA; test: Splicing analysis (Northern blot) of HIV-1 RNA in PMA-induced ACH-2 cells; format: cell-based; conditions: 200 μM, FIG. 7
Source text: At about 9-kb is the position of unspliced viral MRNA species representing the infectious viral genome and encoding key structural proteins for core and capsid. At about 4-kb is the position of incompletely spliced viral MRNA species encoding structural and regulatory proteins. At about 2-kb is the position of completely spliced viral MRNA species encoding regulatory proteins, such as Rev. […] Lane B is for the high level expression of HIV-1 RNA after induction with PMA; note the presence of the 9-kb species.
ACH-2 cells were incubated with hypusine inhibitors (mimosine, HK-1) and induced with PMA as outlined in Example II A. From control cells, from cells induced with PMA, and from PMA-induced cells treated with 200 μM mimosine/HK-1, in each case aliqouts of 1.2×10^7 cells, the total cellular RNA was isolated by the guanidinium isothiocyanate-cesium chloride method [Chirgwin et al., Biochemistrv 18, 5294-5299 (1979), which is hereby incorporated by reference]. Equal quantities of RNA from each cell sample were electrophoresed on a 1% agarose-formaldehyde gel, transferred to nitrocellulose, and hybridized with randomly primed, ^32 P-dCTP-labeled genomic HIV-1 probe pBH10 [Ratner et al., Nature 313, 277-284 (1985), which is hereby incorporated by reference]. Following hybridization, the blots were washed extensively, dried, and autoradiographed. […]

[3] = test system: viral p24 antigen, ACH-2 cells; test: p24 antigen levels (ELISA) in PMA-induced ACH-2 cells; format: cell-based, HIV-1; conditions: 200 μM, PMA-induced ACH-2, FIG. 10
Method: 142, 431-438 (1989), which is hereby incorporated by reference]. However, vigorous HIV-1 production by ACH-2 cells is induced by addition of the phorbol ester PMA [Pomerantz et al., Cell 61, 1271-1276 (1990) and Michael et al., J. Virol 65, 1291-1303 (1991), which are hereby incorporated by reference]. This system was selected for these experiments. Logarithmically growing ACH-2 cells, suspended at a concentration of 3×10^5 /ml, were incubated with the hypusine inhibitors mimosine and HK-1 at a final concentration of 200 μM. After 8 hours, viral replication was activated by addition of PMA to these cells and to untreated controls (100 ng/ml final PMA concentration). […] An aliquot of each fraction was analyzed by slot blotting, using the pXC-1 genomic ribosomal DNA probe from rat containing the 18S rRNA coding sequence [Rimarachin, Szabo et al., In Vitro 28A, 705-707 (1992), which is hereby incorporated by reference], to determine the location within the gradient of 18S rRNA, i.e., the distribution of polysomes vs. monosomes. […] Following electrophoresis, the radio-labeled PCR products were visualized by autoradiography according to routine techniques, and the band intensities quantified by densitometric analysis and expressed relative to total product per gradient. […]

Row | SMILES | TNF-α biosynthesis and secretion [1] | HIV-1 RNA splicing pattern [2] | viral p24 antigen in cells and supernatant [3]
1 | Cc1c(O)c(=O)ccn1C [HK-1, 1,2-dimethyl-3-hydroxypyrid-4-one] | absence of such a suppressive effect | apparent lack of 9-kb and 4-kb species | suppressive effect
2 | N[C@@H](Cn1ccc(=O)c(O)c1)C(=O)O [L-Mimosine] | absence of such a suppressive effect | apparent lack of the 9-kb species | suppressive effect
